Source: patent publication US12358954B2, “Capsid-modified rAAV vector compositions and methods therefor” (priority 2012, dated 2025)
Peptide text beside a SMILES is read from it. * marks the point of attachment. Cbz = O=C(OCc1ccccc1)*

Legend:
Hep293TT cells = assay: AAV3 vector transduction assay in Hep293TT cells; type: cell-based, human
Description: (§1) AAV Vector Transduction Assays. Huh7 or HeLa cells were seeded in 96-well plates at a concentration of 5,000 cells per well in complete DMEM medium. AAV infections were performed in serum- and antibiotic-free DMEM medium. Hep293TT cells were seeded in 96-well plates at a concentration of 10,000 cells per well in complete RPMI medium. The infections were performed in serum- and antibiotic-free RPMI medium. The expression of EGFP was analyzed by direct fluorescence imaging 72 hrs' post-transduction.

Huh7 cells = assay: AAV3 vector transduction assay in Huh7 cells; type: cell-based, human; conditions: increasing concentrations, 2 hr
Description: as §1

HeLa cells [1] = assay: scAAV2 transduction of HeLa cells with MG132 or Tyr23 (positive control); type: cell-based, human; conditions: MG132 5 μM; Tyr23 200 μM
Description: as §1
Proteasome Inhibitors Increase the Transduction Efficiency of AAV3 Vectors. […] To evaluate whether MG132 can also improve AAV3 trafficking in target cells, Huh7, a well-established human hepatocellular carcinoma cell line (Nakabayashi et al., 1982), and Hep293TT, a recently established human hepatoblastoma cell line (Chen et al., 2009), were either mock-treated or treated with increasing concentrations of MG132. […] Transgene expression was determined by fluorescence microscopy 72 hrs post-transduction.
Previous studies have also shown that inhibition of EGFR-PTK signaling by Tyrphostin 23 (Tyr23), a specific inhibitor of EGFR-PTK (May et al., 1998), modulates the Ub/proteasome pathway, which in turn, facilitates intracellular trafficking and transgene expression mediated by AAV2 vectors (Zhong et al., 2007). […] Transgene expression was determined 72 hr post-transduction.

HeLa cells [2] = assay: Recombinant AAV2 vector transduction assay in vitro (EGFP imaging); type: cell-based, human
Description: Recombinant AAV2 Vector Transduction Assays in Vitro. Approximately 1×10^5 HeLa cells were used for transductions with recombinant AAV2 vectors. The transduction efficiency was measured 48-hr post-transduction by EGFP imaging using fluorescence microscopy. Images from three to five visual fields were analyzed quantitatively by ImageJ analysis software (NIH, Bethesda, Md., USA). Transgene expression was assessed as total area of green fluorescence (pixel^2) per visual field (mean±SD). Analysis of variance (ANOVA) was used to compare between test results and the control and they were determined to be statistically significant.
The transduction efficiency of each of the tyrosine-mutant vectors was analyzed and compared with the WT scAAV2-EGFP vector in HeLa cells in vitro under identical conditions. […] Specifically, the transduction efficiency of Y444F, Y500F, Y730F vectors was ˜8- to 11-fold higher than the WT vector.
In a second study, HeLa cells, either mock-treated or treated with Tyr23, a specific inhibitor of EGFR-PTK, or MG132, a proteasome inhibitor, both known to increase the transduction efficiency of AAV vectors, were mock-infected or infected with the WT or Y730F scAAV2-EGFP vectors.

human CD34+ cells = assay: Ex vivo transduction of human CD34+ cells by AAV serotype and tyrosine-mutant AAV6 vectors; type: cell-based
Description: Human bone marrow CD34^+ and umbilical cord blood CD34^+ cells either were purchased from All-Cells (Berkeley, Calif., USA), or were obtained under an institutional review board-approved protocol, and maintained in either StemSpan SFEM medium ([…] Technologies, Inc, Vancouver, BC, CANADA) or IMDM with 10 ng/mL rhIL6 (PeproTech), 10 ng/mL rhIL3 (PeproTech, Rocky Hill, N.J., USA) and 1 ng/mL rhSCF (R&D Systems, Minneapolis, Minn., USA). CD34^+ cell purity was determined by flow cytometry and was >90%. Mouse HSCs, which were positive for Sca-1 and c-kit and negative for lineage markers (c-kit^+, Sca-1^+, lin^−), were isolated from 4-month-old male C57BL/6 mice as previously reported with slight modification. Briefly, femurs and tibias were obtained from C57BL/6 mice, and bone marrow cells were flushed from the bones with phosphate-buffered saline (PBS). […] APC-conjugated CD117 (c-kit) antibody and Alexa Fluor 700 conjugated Sca-1 antibody (Miltenyi Biotec Inc) were used during fluorescence-activated cell sorting (FACS). […]
Ex vivo transduction of HSCs. […] Mock-infected or infected cells were infused into recipient mice immediately after infection, or examined for transgene expression by fluorescence microscopy or by flow cytometry (Accuri C6; BD Biosciences) 48-72 hrs after infection.

HEK293 cells = assay: AAV2 vector transduction assay in HEK293 cells (serine mutants, kinase inhibitors); type: cell-based, human; conditions: 50 μM, 1 hr; 1,000 vgs per cell
Description: Recombinant AAV Vector Transduction Assays In Vitro. HEK293 or monocyte-derived dendritic cells (moDCs), were transduced with AAV2 vectors with 1,000 vgs/cell or 2,000 vgs/cell respectively, and incubated for 48 hr. Alternatively, cells were pretreated with 50 μM of selective serine/threonine kinase inhibitors 2-(2-hydroxyethylamino)-6-aminohexylcarbamic acid tert-butyl ester-9-isopropylpurine (for CaMK-II), anthra[1,9-cd]pyrazol-6(2H)-one, 1,9-pyrazoloanthrone (for JNK), and 4-(4-fluorophenyl)-2-(4-methylsulfinylphenyl)-5-(4-pyridyl)1H-imidazole (for MAPK) (CK59, JNK inhibitor 2, PD 98059, Calbiochem), 1 hr before transduction. Transgene expression was assessed as the total area of green fluorescence (pixel2) per visual field (mean±SD) as described previously (Markusic et al., 2011; Jayandharan et al., 2011). Analysis of variance was used to compare test results and the control, which were determined to be statistically significant.

[3] = system: monocyte-derived dendritic cells (moDCs); assay: AAV2 vector transduction of monocyte-derived dendritic cells (moDCs); type: cell-based, human; conditions: 50 μM, WT scAAV2-EGFP, 48 hrs p.i.
Description: Cells and Antibodies. HEK293, HeLa and NIH3T3 cells were obtained from the American Type Culture Collection and maintained as monolayer cultures in DMEM (Invitrogen, Inc.) supplemented with 10% FBS (Sigma-Aldrich Co.) and antibiotics (Lonza, Inc.). Leukapheresis-derived peripheral blood mononuclear cells (PBMCs) (AllCells) were purified on Ficoll-Paque (GEHeathCare), resuspended in serum-free AIM-V medium (Lonza, Inc.), and semi-adherent cell fractions were incubated for 7 days with recombinant human IL-4 (500 U/mL) and GM-CSF (800 U/mL) (R&D Systems). Cell maturation was initiated with a cytokine mixture including 10 ng/mL TNF-α, 10 ng/mL IL-1, 10 ng/mL IL-6, and 1 mg/mL PGE2 (R&D Systems) for 48 hrs. Prior to EGFP expression cells were characterized for co-stimulatory molecules expression to ensure that they met the typical phenotype of mature dendritic cells (mDC) (CD80, RPE, murine IgG1; CD83, RPE, murine IgG1; CD86, FITC, murine IgG1; Invitrogen, Inc.). (Jayandharan et al., 2011)
Recombinant AAV Vector Transduction Assays In Vitro. […] Transgene expression was assessed as the total area of green fluorescence (pixel2) per visual field (mean±SD) as described previously (Markusic et al., 2011; Jayandharan et al., 2011). Analysis of variance was used to compare test results and the control, which were determined to be statistically significant.

CC(C)C[C@@H](C=O)NC(=O)[C@H](CC(C)C)NC(=O)[C@H](CC(C)C)NC(=O)OCc1ccccc1 [MG132] (Cbz-Leu-Leu-Leu-aldehyde)
amounts of internalized viral DNA in presence or absence of inhibitor (Hep293TT cells): no significant difference | transduction efficiency of scAAV3 vectors after treatment (Hep293TT cells; 2 hr treatment): dose-dependent increase | transduction efficiency of scAAV3 vectors after treatment (Huh7 cells): dose-dependent increase | transduction efficiency of scAAV2 vectors after pretreatment (HeLa cells [1]): significantly increased | increase in transduction efficiency of WT scAAV2-EGFP by pretreatment (HeLa cells [2]): ~6 fold

epidermal growth factor: epidermal growth factor
effect on transduction efficiency of AAV6 vectors in CD34+ cells (human CD34+ cells): no effect

C[S+]([O-])c1ccc(-c2nc(-c3ccc(F)cc3)c(-c3ccncc3)[nH]2)cc1 (centres unmarked) [p38 MAPK inhibitor, 4-(4-fluorophenyl)-2-(4-methylsulfinylphenyl)-5-(4-pyridyl)1H-imidazole]
transduction efficiency of ssAAV2 and scAAV2 vectors after inhibitor pre-treatment (HEK293 cells): most effective

O=C1c2ccccc2-c2n[nH]c3cccc1c23 [JNK inhibitor, anthra[1,9-cd]pyrazol-6(2H)-one, 1,9-pyrazoloanthrone]
increase of EGFP expression levels by inhibitor pre-treatment [3]: ~2 fold
